Measured values from paper PMC11470957, “Principles of paralog-specific targeted protein degradation engaging the C-degron E3 KLHDC2” (Nature Communications, 2024).
“And” between values parts separate entries of the source, which are not always exact repeats. Equal entries are not always repeated. Where two headings read alike, the source gives them in different places.

Target: BRD4 (Homo sapiens, UniProt O60885)
Test: Western blot of BRD4 levels after cellular dosing
Details: for BRD4 (DMSO = 100): Rep1, Rep2

COC(=O)CNC(=O)Cc1csc(-c2ccc3cccc(OCCN4CCN(C(=O)C[C@@H]5N=C(c6ccc(Cl)cc6)c6c(sc(C)c6C)-n6c(C)nnc65)CC4)c3c2)n1 [SJ46420]
BRD4 level relative to DMSO (100%) (22Rv1, 0.16µM, 24 h, Fig S6f): 105 +/- 5.8%
BRD4 level relative to DMSO (100%) (22Rv1, 0.63µM, 24 h, Fig S6f): 101 +/- 7.2%
BRD4 level relative to DMSO (100%) (22Rv1, 1.3µM, 24 h, Fig S6f): 89 +/- 2.9%
BRD4 level relative to DMSO (100%) (22Rv1, 2.5µM, 24 h, Fig S6f): 88 +/- 11%
BRD4 level relative to DMSO (100%) (22Rv1, 5µM, 24 h, Fig S6f): 83 +/- 10%
BRD4 level relative to DMSO (100%) (22Rv1, 10µM, 24 h, Fig S6f): 68 +/- 15%
Dmax (22Rv1, read-out: BRD4 Dmax, 22Rv1, 24 h dose): 30%
BRD4 level relative to DMSO (100%) (293T, 2.5µM, 24 h, Fig S6a): 98 +/- 5.3%
BRD4 level relative to DMSO (100%) (293T, 5µM, 24 h, Fig S6a): 79 +/- 6.6%
BRD4 level relative to DMSO (100%) (AU565, 0.2µM, 8 h, Fig S6c): 82 +/- 4.7%
BRD4 level relative to DMSO (100%) (AU565, 1µM, 8 h, Fig S6c): 53 +/- 5.1%
BRD4 level relative to DMSO (100%) (AU565, 5µM, 8 h, Fig S6c): 4.1 +/- 1.3%
BRD4 level, Western blot quantification (DMSO = 100) (Fig 6b, KO/Rescue, 5 uM): 91.0765 and 107.689
BRD4 level, Western blot quantification (DMSO = 100) (Fig 6b, U2OS, 5 uM): 77.4849 and 71.6749
BRD4 level, Western blot quantification (DMSO = 100) (Fig 6c, 1 uM): 92.7102 and 86.955
BRD4 level, Western blot quantification (DMSO = 100) (Fig 6d, 1 uM): 67.4942 and 82.9736
BRD4 level, Western blot quantification (DMSO = 100) (Fig 6d, 1uM together with 1uM MLN4924): 118.408 and 100.267
BRD4 level, Western blot quantification (DMSO = 100) (Fig S6a, 293T cells, 2.5 uM): 94.5347 and 102.135
BRD4 level, Western blot quantification (DMSO = 100) (Fig S6a, 293T cells, 5 uM): 74.6014 and 84.7353
BRD4 level, Western blot quantification (DMSO = 100) (Fig S6b, MDA-MB468 Cells, 2 uM): 86.0887 and 95.6433
BRD4 level, Western blot quantification (DMSO = 100) (Fig S6b, MDA-MB468 Cells, 5 uM): 75.9577 and 82.1258
BRD4 level, Western blot quantification (DMSO = 100) (Fig S6b, MDA-MB468 Cells, 10 uM): 65.8655 and 71.3135
BRD4 level, Western blot quantification (DMSO = 100) (Fig S6c, AU565 Cells, 0.2 uM): 78.2951 and 85.4236
BRD4 level, Western blot quantification (DMSO = 100) (Fig S6c, AU565 Cells, 1 uM): 49.0527 and 56.2352
BRD4 level, Western blot quantification (DMSO = 100) (Fig S6c, AU565 Cells, 5 uM): 3.1923 and 5.662
BRD4 level, Western blot quantification (DMSO = 100) (Fig S6e, PC3 KO/rescue Dose Response, 0.156 uM): 98.9143 and 85.6296
BRD4 level, Western blot quantification (DMSO = 100) (Fig S6e, PC3 KO/rescue Dose Response, 0.313 uM): 95.5722 and 70.9157
BRD4 level, Western blot quantification (DMSO = 100) (Fig S6e, PC3 KO/rescue Dose Response, 0.625 uM): 77.9263 and 60.6542
BRD4 level, Western blot quantification (DMSO = 100) (Fig S6e, PC3 KO/rescue Dose Response, 1.25 uM): 36.0358 and 57.3958
BRD4 level, Western blot quantification (DMSO = 100) (Fig S6e, PC3 KO/rescue Dose Response, 2.5 uM): 28.2357 and 25.3138
BRD4 level, Western blot quantification (DMSO = 100) (Fig S6e, PC3 KO/rescue Dose Response, 5 uM): 3.953 and 2.975
BRD4 level, Western blot quantification (DMSO = 100) (Fig S6e, PC3 KO/rescue Dose Response, 10uM): 0.3603 and 0.6573
BRD4 level, Western blot quantification (DMSO = 100) (Fig S6f, 22RV1 KO/rescue Dose Response, 0.156 uM): 101.401 and 109.713
BRD4 level, Western blot quantification (DMSO = 100) (Fig S6f, 22RV1 KO/rescue Dose Response, 0.313 uM): 109.261 and 111.474
BRD4 level, Western blot quantification (DMSO = 100) (Fig S6f, 22RV1 KO/rescue Dose Response, 0.625 uM): 106.365 and 96.1732
BRD4 level, Western blot quantification (DMSO = 100) (Fig S6f, 22RV1 KO/rescue Dose Response, 1.25 uM): 91.1283 and 87.0112
BRD4 level, Western blot quantification (DMSO = 100) (Fig S6f, 22RV1 KO/rescue Dose Response, 2.5 uM): 95.8637 and 80.8873
BRD4 level, Western blot quantification (DMSO = 100) (Fig S6f, 22RV1 KO/rescue Dose Response, 5 uM): 91.3116 and 76.191
BRD4 level, Western blot quantification (DMSO = 100) (Fig S6f, 22RV1 KO/rescue Dose Response, 10uM): 79.6577 and 57.9117
BRD4 level, Western blot quantification (DMSO = 100) (Fig S6g, SKBR3 Time course, 1 uM, 2hr): 104.311 and 100.652
BRD4 level, Western blot quantification (DMSO = 100) (Fig S6g, SKBR3 Time course, 1 uM, 4hr): 75.4286 and 82.2353
BRD4 level, Western blot quantification (DMSO = 100) (Fig S6g, SKBR3 Time course, 1 uM, 8hr): 78.3987 and 72.5234
BRD4 level, Western blot quantification (DMSO = 100) (Fig S6g, SKBR3 Time course, 5 uM, 2hr): 109.415 and 100.234
BRD4 level, Western blot quantification (DMSO = 100) (Fig S6g, SKBR3 Time course, 5 uM, 4hr): 59.7954 and 68.2545
BRD4 level, Western blot quantification (DMSO = 100) (Fig S6g, SKBR3 Time course, 5 uM, 8hr): 59.199 and 52.2362
BRD4 level, Western blot quantification (DMSO = 100) (Fig S6i, SKBR3, 5uM): 72.6081 and 84.277
BRD4 level, Western blot quantification (DMSO = 100) (Fig S6i, U2OS, 5uM): 157.053 and 196.781
BRD4 level, Western blot quantification (DMSO = 100) (Fig S6h, U2OS Time course, 5uM, 2hr): 126.968 and 100.342
BRD4 level, Western blot quantification (DMSO = 100) (Fig S6h, U2OS Time course, 5uM, 4hr): 91.1641 and 100.137
BRD4 level, Western blot quantification (DMSO = 100) (Fig S6h, U2OS Time course, 5uM, 8hr): 65.7267 and 72.5334
BRD4 level, Western blot quantification (DMSO = 100) (Fig S6h, U2OS Time course, 5uM, 24hr): 56.1641 and 64.2352
BRD4 level, Western blot quantification (DMSO = 100) (Fig S6d, U2OS KO/rescue Dose Response, 0.156 uM): 81.019 and 75.43
BRD4 level, Western blot quantification (DMSO = 100) (Fig S6d, U2OS KO/rescue Dose Response, 0.313 uM): 75.0042 and 85.343
BRD4 level, Western blot quantification (DMSO = 100) (Fig S6d, U2OS KO/rescue Dose Response, 0.625 uM): 69.2459 and 75.342
BRD4 level, Western blot quantification (DMSO = 100) (Fig S6d, U2OS KO/rescue Dose Response, 1.25 uM): 72.3683 and 63.23
BRD4 level, Western blot quantification (DMSO = 100) (Fig S6d, U2OS KO/rescue Dose Response, 2.5 uM): 72.6616 and 79.232
BRD4 level, Western blot quantification (DMSO = 100) (Fig S6d, U2OS KO/rescue Dose Response, 5 uM): 65.5064 and 72.323
BRD4 level relative to DMSO (100%) (MDA-MB-468, 2.5µM, 24 h, Fig S6b): 90 +/- 6.3%
BRD4 level relative to DMSO (100%) (MDA-MB-468, 5µM, 24 h, Fig S6b): 78 +/- 4.3%
BRD4 level relative to DMSO (100%) (MDA-MB-468, 10µM, 24 h, Fig S6b): 68 +/- 3.6%
BRD4 level relative to DMSO (100%) (PC3, 0.16µM, 24 h, Fig S6e): 78 +/- 4.1%
BRD4 level relative to DMSO (100%) (PC3, 0.31µM, 24 h, Fig S6e): 80 +/- 7.3%
BRD4 level relative to DMSO (100%) (PC3, 0.63µM, 24 h, Fig S6e): 72 +/- 4.3%
BRD4 level relative to DMSO (100%) (PC3, 1.3µM, 24 h, Fig S6e): 67 +/- 6.5%
BRD4 level relative to DMSO (100%) (PC3, 2.5µM, 24 h, Fig S6e): 75 +/- 4.7%
BRD4 level relative to DMSO (100%) (PC3, 5µM, 24 h, Fig S6e): 68 +/- 4.8%
BRD4 level relative to DMSO (100%) (PC3, 10µM, 24 h, Fig S6e): 44 +/- 5.7%
BRD4 (DMSO = 100) (PC3 cells, Log SJ46420 1.89279): 90.1763 and 93.433
BRD4 (DMSO = 100) (PC3 cells, Log SJ46420 4): 40.11 and 48.232
BRD4 level relative to DMSO (100%) (SKBR3, 1µM, 2hr, Fig S6g): 102 +/- 3.1%
BRD4 level relative to DMSO (100%) (SKBR3, 1µM, 4hr, Fig S6g): 78 +/- 4.7%
BRD4 level relative to DMSO (100%) (SKBR3, 1µM, 8hr, Fig S6g): 75 +/- 4.5%
BRD4 level relative to DMSO (100%) (SKBR3, 5µM, 2hr, Fig S6g): 104 +/- 6.7%
BRD4 level relative to DMSO (100%) (SKBR3, 5µM, 4hr, Fig S6g): 63 +/- 5.8%
BRD4 level relative to DMSO (100%) (SKBR3, 5µM, 4hr, Fig S6j): 78 +/- 8.2%
BRD4 level relative to DMSO (100%) (SKBR3, 5µM, 8hr, Fig S6g): 55 +/- 5.1%
BRD4 level relative to DMSO (100%) (U2OS DC2KO (KLHDC2 knockout), 5µM, 24 h, Fig 6b): 99 +/- 12%
BRD4 (DMSO = 100) (U2OS KO/Rescue cells, Log SJ46420 1.59176): 106.334 and 102.232
BRD4 level relative to DMSO (100%) (U2OS KO/Rescue, 0.16µM, 24 h, Fig S6d): 92 +/- 9.3%
BRD4 level relative to DMSO (100%) (U2OS KO/Rescue, 0.31µM, 24 h, Fig S6d): 83 +/- 16%
BRD4 level relative to DMSO (100%) (U2OS KO/Rescue, 0.63µM, 24 h, Fig S6d): 69 +/- 12%
BRD4 level relative to DMSO (100%) (U2OS KO/Rescue, 1µM, 24 h, Fig 6c): 90 +/- 4.1%
BRD4 level relative to DMSO (100%) (U2OS KO/Rescue, 1µM, 24 h, Fig 6d): 75 +/- 10%
BRD4 level relative to DMSO (100%) (U2OS KO/Rescue, 1.3µM, 24 h, Fig S6d): 46 +/- 15%
BRD4 level relative to DMSO (100%) (U2OS KO/Rescue, 2.5µM, 24 h, Fig S6d): 26 +/- 2.1%
BRD4 level relative to DMSO (100%) (U2OS KO/Rescue, 5µM, 24 h, Fig S6d): 3.4 +/- 0.69%
BRD4 Dmax (U2OS KO/Rescue, 24 h dose): ~ 100%
BRD4 level relative to DMSO (100%) (U2OS KO/Rescue, concentration not printed (line after 5µM), 24 h, Fig S6d): 0.51 +/- 0.21%
BRD4 level relative to DMSO (100%) (U2OS, 5µM, 4hr, Fig S6h): 96 +/- 7.2%
BRD4 level relative to DMSO (100%) (U2OS, 5µM, 8hr, Fig S6i): 176 +/- 28%
BRD4 level relative to DMSO (100%) (U2OS, 5µM, 8hr, Fig S6h): 69 +/- 4.4%
BRD4 level relative to DMSO (100%) (U2OS, 5µM, 24 h, Fig 6b): 74 +/- 4.1%
BRD4 level relative to DMSO (100%) (U2OS, 5µM, 24hr, Fig S6h): 60 +/- 5.6%
Dmax (U2OS, read-out: BRD4 Dmax, U2OS KO/Rescue, 24 h dose): 99.4%
Dmax (read-out: BRD4 Dmax, PC3, 24 h dose): 59.5%
